Measured values: US5242942A, “Anticonvulsant fructopyranose cyclic sulfites and sulfates” (McNeilab, Inc., priority 1992, dated 1993)

Assays:
[1] = tested on: tonic extensor seizure; assay: maximal electroshock test (MES); type: in vivo, mouse (albino male CRS-CD1); conditions: PO, mouse, 4 hr, read-out: % Block (MES Test, mouse)
Method: The compounds of formula (I) are particularly useful as anticonvulsant agents in mammals including humans. The anticonvulsant activity of the subject compounds was determined using a standard "maximal electroshock test" (MES). In this test, activity is indicated by a block of the […] extensor seizure caused by application of an electric shock to mice via corneal electrodes, as described by Swinyard et al. in J. Pharmacol. Expt. Ther. 1952, 106, 319, and recorded as % block. A more recent description of current anticonvulsant drug screening is given by Swinyard in Epilepsia 1978, 19, 409. The anticonvulsant activity of the compounds of this invention tested according to the Swinyard 1952 method is shown in the following Table I.
In the test, albino male CRS-CD1 mice weighing between 18-25 g were used in all experiments (obtained from Charles River). They were allowed food and water ad libitum and were used only once. The electroshock apparatus and the corneal electrodes were purchased from Wahlquist Instrument Company, Salt Lake City, Utah.
Maximal electroshock seizures were induced by the delivery of a 60 Hertz (Hz) current of 50 milliamps (mA) intensity to the mouse through corneal electrodes for 0.2 seconds as originally described by Swinyard et al. (1952). This stimulus intensity is approximately 4 to 6 times the current producing 100% tonic extensor convulsions. During the validation of the MES test, the duration of the various seizure components following maximal electroshock were measured as follows: hindleg tonic flexion was measured from the time of the application of the stimulus to the time of onset of hindleg tonic extension (i.e. when the hindlegs deviate by greater than an angle of 90° from the torso), hindleg tonic extensor was measured from the time of extensor thrust to the onset of generalized clonus, and terminal clonus was measured from the beginning to the end of bilateral rhythmic clonic jerking. Mortality was also recorded. The duration of each seizure component agreed well with the values previously reported by Tedeschi et al. in J. Pharmacol. Expt. Ther. 1955, 116, 107. The corneal electrodes were concave so that saline could be applied to the electrodes to reduce mortality. If this procedure is followed, mortality should always be less than 40% in control mice. Thus, at an electroshock stimulus of 60 Hz, 50 mA and 0.2 seconds duration, the order of convulsive components and the percentage of control animals displaying the behaviors should be as follows: tonic flexion (100%), tonic extension (100%) and clonus (100%) with less than 40% mortality.
For testing compounds, the abolition of the tonic extensor component was the endpoint. Animals were dosed orally (PO) with either vehicle or test drug and at a specified time were given a maximal electric shock through corneal electrodes blotted with saline (as described above). A minimum of 10 animals were used per group and the percentage of animals in the group without tonic hindlimb extension recorded. Determination of ED50 values (that dose of drug inhibiting 50% of the tonic extensor seizures) is shown below in Table I.

[2] = rat diuresis study; type: in vivo, rat (male Wistar); conditions: 2.5 mg/kg PO, average of five animals
Source text: Evidence for the inhibition of carbonic anhydrase by compounds of the formula (I) can also be obtained by a diuresis study, such as described by A. Weiner in Goodman and Gilman's The Pharmacological Basis of Therapeutics, 8th ed.; Goodman Gilman, A.; Rall, T. W.; Nies, A. S.; Taylor, P., Eds.; Pergamon Press: New York, 1990; pp 716-718. An increase in urine akalinity accompanied with an increase in water intake and urine output provides an indirect indication of carbonic anhydrase inhibition activity. Male Wistar rats having a weight of 250-300 g were dosed orally (PO) and housed in cages that allowed for the quantitative measure of fluid intake and urine output. Water intake and urine output were measured at 24 hours versus control, whereas urine pH, obtained via pH meter, was measured at 4 and 24 hours versus control. The results of this study, which are the average of five animals, are reported below in Table III. […] Such data is also an indication of the usefulness of the compounds of formula (I) as diuretics in the treatment of hypertension, congestive heart failure and other types of edema. The determination of suitable dosages for such compounds for the treatment of hypertension and congestive heart failure and other types of edema is within the skill of the art.

[3] = tested on: Total Acid Output; assay: pylorus-ligated rat test, gastric antisecretory activity; type: in vivo, rat (male Charles River Sprague-Dawley derived); conditions: IP, 200 mg/kg
Method: The gastric antisecretory activity of the compounds shown in Table II was determined by the pylorus-ligated rat test described by Shay et al. in Gastroenterol. 1954, 26, 906. In this method, male Charles River Sprague-Dawley derived rats weighing 150-300 grams were deprived of food but not water for 18-24 hours prior to use. Water was withheld during the experiment, however. The rats were weighed, lightly anesthetized with ether and the pylorus ligated according to the method of Shay et al., supra. The treatment or vehicle control was then administered intraperitoneally (IP) or orally (PO). When administered by the IP route, the administration was done 30 minutes before ligation. When administered by the PO route, the administration was done prior to ligation (about 1/2 to 3 hours before). Rats were housed two per cage and sacrificed with carbon dioxide 3 hours after ligation. Their stomachs were removed, rinsed, and contents emptied into a graduated centrifuge tube. The tubes were centrifuged, the volume of gastric juice was recorded, and any samples obviously contaminated by feces, food or blood were eliminated. A 1 mL aliquot of gastric juice was titrated with 0.1N NaOH to a pH of 7.0-7.4. The volume of gastric juice secreted, the acid concentration, and the product of the volume times the concentration, i.e. the total amount of acid secreted, were measured. The total acid output was calculated by multiplying the volume of gastric juices collected times the hydrogen ion concentration (amount of NaOH added to a sample to reach a pH of 7.0-7.4) and dividing that value by 10. The mean value of the total acid output for a control group of rats was then subtracted from the mean value of the total acid output for the group of rats tested at the same dose. That value was then divided by the mean value of total acid output for the control group and the resulting number was multiplied by 100 to provide a Percent Inhibition value, which values are reported in Table II. The […] was determined statistically as the dose at which a 50% inhibition would be realized.

SMILES	responders at 10 mg/kg ([1]; 10 mg/kg)	Urine pH ([2]; 4 hours, control 6.98)	Urine pH ([2]; 24 hours, control 6.43)	Water Intake ([2]; 24 hours, control 15.0)	Urine Output ([2]; 24 hours, control 17.6)	Percent Inhibition of Total Acid Output [3]	responders at 35 mg/kg ([1]; 35 mg/kg)
CC1(C)O[C@H]2[C@@H]3OS(=O)(=O)O[C@@H]3CO[C@@]2(COS(=O)(=O)NC2CC2)O1 [Example 9, 2,3-O-(1-Methylethylidene)-4,5-O-sulfonyl-β-D-fructopyranose Cyclopropylsulfamate]	90%	9.02	7.26	27.8 mL	33.2 mL	87%	
CC1(C)O[C@H]2[C@@H]3OS(=O)(=O)O[C@@H]3CO[C@@]2(COS(=O)(=O)N=[N+]=[N-])O1 [Example 15, 2,3-O-(1-Methylethylidene)-4,5-O-sulfonyl-β-D-fructopyranose Azidosulfate]						96%	100%
